Target: T1, MLK3 (Homo sapiens, UniProt Q16584)
T1 construct: purchased Dundee DU8313
Experiment: Radiometric filter plate MLK3 assay; further: 2 µM cold ATP (Km)
Type: biochemical
Conditions: read-out: MK3 IC50
Method: After a twenty minute incubation, the reactions were washed through filter plates and read on a scintillation counter. Results are shown in Table 10 below, in which +++ indicates ≦0.1 μM, ++ indicates >0.1 μM and ≦1 μM, and + indicates >1 μM.

T1 sequence (Q16584 whole entry): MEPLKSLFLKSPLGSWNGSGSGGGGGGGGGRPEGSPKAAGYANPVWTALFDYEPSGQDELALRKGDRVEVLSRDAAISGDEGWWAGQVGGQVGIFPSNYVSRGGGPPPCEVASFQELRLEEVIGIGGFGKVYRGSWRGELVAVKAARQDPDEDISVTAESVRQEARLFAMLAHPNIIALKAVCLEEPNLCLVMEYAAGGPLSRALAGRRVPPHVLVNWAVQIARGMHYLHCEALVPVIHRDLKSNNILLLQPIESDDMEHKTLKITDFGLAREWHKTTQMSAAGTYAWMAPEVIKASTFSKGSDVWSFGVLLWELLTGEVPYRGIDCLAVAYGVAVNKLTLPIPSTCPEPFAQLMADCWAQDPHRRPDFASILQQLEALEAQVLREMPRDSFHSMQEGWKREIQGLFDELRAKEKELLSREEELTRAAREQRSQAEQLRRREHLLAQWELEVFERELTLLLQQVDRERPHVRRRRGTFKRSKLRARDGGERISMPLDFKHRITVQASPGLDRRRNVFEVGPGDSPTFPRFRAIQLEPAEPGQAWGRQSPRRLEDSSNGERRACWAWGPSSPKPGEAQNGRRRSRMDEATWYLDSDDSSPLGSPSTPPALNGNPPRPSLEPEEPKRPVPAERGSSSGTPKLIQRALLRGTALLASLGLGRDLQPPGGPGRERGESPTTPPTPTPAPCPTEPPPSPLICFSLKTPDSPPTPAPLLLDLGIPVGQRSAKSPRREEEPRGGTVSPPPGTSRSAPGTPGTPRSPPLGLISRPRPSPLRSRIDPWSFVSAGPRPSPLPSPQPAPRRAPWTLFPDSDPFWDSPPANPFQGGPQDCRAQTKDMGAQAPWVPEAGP

`COc1ccc(-n2c(=O)[nH]c3ncc(-c4ccncc4)nc32)cc1` [Example 71, 1-(4-methoxyphenyl)-6-(pyridin-4-yl)-1H-imidazo[4,5-b]pyrazin-2(3H)-one] and `Cc1cc2cc(-n3c(=O)[nH]c4ncc(-c5ccncc5)nc43)ccc2[nH]1` [Example 85, 1-(2-methyl-1H-indol-5-yl)-6-(pyridin-4-yl)-1H-imidazo[4,5-b]pyrazin-2(3H)-one] cannot be ordered by IC50: greater than 1000 nM for the first, greater than 1000 nM for the second.

`COc1cc(-c2cnc3[nH]c(=O)n(-c4ccc5[nH]c(C)cc5c4)c3n2)cc(OC)c1OC` [Example 72, 1-(2-methyl-1H-indol-5-yl)-6-(3,4,5-trimethoxyphenyl)-1H-imidazo[4,5-b]pyrazin-2(3H)-one] and `COc1cc(-c2cnc3[nH]c(=O)n(-c4ccc5[nH]cnc5c4)c3n2)cc(OC)c1OC` [Example 102, 1-(1H-benzo[d]imidazol-5-yl)-6-(3,4,5-trimethoxyphenyl)-1H-imidazo[4,5-b]pyrazin-2(3H)-one] cannot be ordered by IC50: less than 100 nM for the first, less than 100 nM for the second.

`Cc1cc2cc(-n3c(=O)[nH]c4ncc(-c5cc(Cl)cc(Cl)c5)nc43)ccc2[nH]1` [Example 73, 6-(3,5-dichlorophenyl)-1-(2-methyl-1H-indol-5-yl)-1H-imidazo[4,5-b]pyrazin-2(3H)-one] and `Cc1cc(C)cc(-c2cnc3[nH]c(=O)n(-c4ccc5cn[nH]c5c4)c3n2)c1` [Example 95, 6-(3,5-dimethylphenyl)-1-(1H-indazol-6-yl)-1H-imidazo[4,5-b]pyrazin-2(3H)-one] cannot be ordered by IC50: greater than 1000 nM for the first, greater than 1000 nM for the second.

Compared with `COc1cc(-c2cnc3[nH]c(=O)n(C4CCCC4)c3n2)cc(OC)c1OC` [Example 74, 1-cyclopentyl-6-(3,4,5-trimethoxyphenyl)-1H-imidazo[4,5-b]pyrazin-2(3H)-one], `COc1cc(OC)c(-c2cnc3[nH]c(=O)n(C4CCCC4)c3n2)c(OC)c1` [Example 94, 1-cyclopentyl-6-(2,4,6-trimethoxyphenyl)-1H-imidazo[4,5-b]pyrazin-2(3H)-one] is higher in IC50: less than 100 nM for the first, greater than 1000 nM for the second.

`COc1ccc(-c2cnc3[nH]c(=O)n(C4CCCC4)c3n2)cc1OC` [Example 75, 1-cyclopentyl-6-(3,4-dimethoxyphenyl)-1H-imidazo[4,5-b]pyrazin-2(3H)-one] and `Nc1ccc(-c2cnc3[nH]c(=O)n(C4CCCC4)c3n2)cn1` [Example 117, 6-(6-aminopyridin-3-yl)-1-cyclopentyl-1H-imidazo[4,5-b]pyrazin-2(3H)-one] cannot be ordered by IC50: greater than 1000 nM for the first, greater than 1000 nM for the second.

`O=c1[nH]c2ncc(-c3ccncc3)nc2n1C1CCCC1` [Example 77, 1-cyclopentyl-6-(pyridin-4-yl)-1H-imidazo[4,5-b]pyrazin-2(3H)-one] and `O=c1[nH]c2ncc(-c3ccncc3)nc2n1CC1CC1` [Example 82, 1-(cyclopropylmethyl)-6-(pyridin-4-yl)-1H-imidazo[4,5-b]pyrazin-2(3H)-one] cannot be ordered by IC50: greater than 1000 nM for the first, greater than 1000 nM for the second.

`O=c1[nH]c2ncc(-c3cc(Cl)cc(Cl)c3)nc2n1CC1CC1` [Example 80, 1-(cyclopropylmethyl)-6-(3,5-dichlorophenyl)-1H-imidazo[4,5-b]pyrazin-2(3H)-one] and `O=c1[nH]c2ncc(-c3ccc(O)cc3)nc2n1CC1CC1` [Example 81, 1-(cyclopropylmethyl)-6-(4-hydroxyphenyl)-1H-imidazo[4,5-b]pyrazin-2(3H)-one] cannot be ordered by IC50: greater than 1000 nM for the first, greater than 1000 nM for the second.

`O=c1[nH]c2ncc(-c3ccc(N4CCOCC4)cc3)nc2n1CC1CC1` [Example 86, 1-(cyclopropylmethyl)-6-(4-morpholinophenyl)-1H-imidazo[4,5-b]pyrazin-2(3H)-one] and `O=c1[nH]c2ncc(-c3ccc(N4CCOCC4)cc3)nc2n1-c1ccc2[nH]ncc2c1` [Example 89, 1-(1H-indazol-5-yl)-6-(4-morpholinophenyl)-1H-imidazo[4,5-b]pyrazin-2(3H)-one] cannot be ordered by IC50: greater than 1000 nM for the first, greater than 1000 nM for the second.

`COc1ccc(-c2cnc3[nH]c(=O)n(-c4ccc5[nH]ncc5c4)c3n2)cc1OC` [Example 87, 6-(3,4-dimethoxyphenyl)-1-(1H-indazol-5-yl)-1H-imidazo[4,5-b]pyrazin-2(3H)-one] and `O=c1[nH]c2ncc(-c3ccncc3)nc2n1-c1ccc2[nH]ncc2c1` [Example 88, 1-(1H-indazol-5-yl)-6-(pyridin-4-yl)-1H-imidazo[4,5-b]pyrazin-2(3H)-one] cannot be ordered by IC50: greater than 1000 nM for the first, greater than 1000 nM for the second.

`O=c1[nH]c2ncc(-c3ccc(O)cc3)nc2n1-c1ccc2cn[nH]c2c1` [Example 92, 6-(4-hydroxyphenyl)-1-(1H-indazol-6-yl)-1H-imidazo[4,5-b]pyrazin-2(3H)-one] and `O=c1[nH]c2ncc(-c3ccncc3)nc2n1-c1ccc2scnc2c1` [Example 98, 1-(benzo[d]thiazol-5-yl)-6-(pyridin-4-yl)-1H-imidazo[4,5-b]pyrazin-2(3H)-one] cannot be ordered by IC50: greater than 1000 nM for the first, greater than 1000 nM for the second.

`Cc1cc(C)cc(-c2cnc3[nH]c(=O)n(-c4ccc5scnc5c4)c3n2)c1` [Example 99, 1-(benzo[d]thiazol-5-yl)-6-(3,5-dimethylphenyl)-1H-imidazo[4,5-b]pyrazin-2(3H)-one] and `O=c1[nH]c2ncc(-c3ccc(N4CCOCC4)cc3)nc2n1-c1ccc2scnc2c1` [Example 100, 1-(benzo[d]thiazol-5-yl)-6-(4-morpholinophenyl)-1H-imidazo[4,5-b]pyrazin-2(3H)-one] cannot be ordered by IC50: greater than 1000 nM for the first, greater than 1000 nM for the second.

First: COc1cc(-c2cnc3[nH]c(=O)n(C4CCc5ccccc54)c3n2)cc(OC)c1OC (centres unmarked) [Example 101, 1-(2,3-dihydro-1H-inden-1-yl)-6-(3,4,5-trimethoxyphenyl)-1H-imidazo[4,5-b]pyrazin-2(3H)-one]
Second: COc1cc(-c2cnc3[nH]c(=O)n(C4Cc5ccccc5C4)c3n2)cc(OC)c1OC [Example 110, 1-(2,3-dihydro-1H-inden-2-yl)-6-(3,4,5-trimethoxyphenyl)-1H-imidazo[4,5-b]pyrazin-2(3H)-one]
The IC50 of the first is higher: greater than 1000 nM for the first, less than 100 nM for the second. The second is the more potent here.

First: COc1cc(-c2cnc3[nH]c(=O)n(-c4ccc(N5CCOCC5)nc4)c3n2)cc(OC)c1OC [Example 109, 1-(6-morpholinopyridin-3-yl)-6-(3,4,5-trimethoxyphenyl)-1H-imidazo[4,5-b]pyrazin-2(3H)-one]
Second: COc1cc(-c2cnc3[nH]c(=O)n(-c4cnc5[nH]ccc5c4)c3n2)cc(OC)c1OC [Example 112, 1-(1H-pyrrolo[2,3-b]pyridin-5-yl)-6-(3,4,5-trimethoxyphenyl)-1H-imidazo[4,5-b]pyrazin-2(3H)-one]
The IC50 of the first is higher: greater than 1000 nM for the first, less than 100 nM for the second. The second is the more potent here.

First: COc1cc(-c2cnc3[nH]c(=O)n(-c4ccc5cc[nH]c5c4)c3n2)cc(OC)c1OC [Example 113, 1-(1H-indol-6-yl)-6-(3,4,5-trimethoxyphenyl)-1H-imidazo[4,5-b]pyrazin-2(3H)-one]
Second: COc1cc(-c2cnc3[nH]c(=O)n(-c4ccc5[nH]ccc5c4)c3c2)cc(OC)c1OC [Example 124, 1-(1H-indol-5-yl)-6-(3,4,5-trimethoxyphenyl)-1H-imidazo[4,5-b]pyridin-2(3H)-one]
The IC50 of the first is lower: less than 100 nM for the first, 100 to 1000 nM for the second.

`COc1cc(-c2nc3c(nc2Cl)[nH]c(=O)n3CC2CC2)cc(OC)c1OC` [Example 119, 5-chloro-1-(cyclopropylmethyl)-6-(3,4,5-trimethoxyphenyl)-1H-imidazo[4,5-b]pyrazin-2(3H)-one] and `COc1cc(-c2cnc3[nH]c(=O)n(CC4CC4)c3c2)cc(OC)c1OC` [Example 125, 1-(cyclopropylmethyl)-6-(3,4,5-trimethoxyphenyl)-1H-imidazo[4,5-b]pyridin-2(3H)-one] cannot be ordered by IC50: greater than 1000 nM for the first, greater than 1000 nM for the second.

First: COc1cc(-c2cnc3c(c2)C(CC2CC2)(CC2CC2)C(=O)N3)cc(OC)c1OC [Example 122, 3,3-bis(cyclopropylmethyl)-5-(3,4,5-trimethoxyphenyl)-1H-pyrrolo[2,3-b]pyridin-2(3H)-one]
Second: COc1cc(-c2cnc3c(c2)C(CC2CC2)C(=O)N3)cc(OC)c1OC (centres unmarked) [Example 123, 3-(cyclopropylmethyl)-5-(3,4,5-trimethoxyphenyl)-1H-pyrrolo[2,3-b]pyridin-2(3H)-one]
The IC50 of the first is higher: greater than 1000 nM for the first, 100 to 1000 nM for the second. The second is the more potent here.

`COc1cc(-c2cnc3ncn(-c4ccc5[nH]ccc5c4)c3n2)cc(OC)c1OC` [Example 126, 1-(1H-indol-5-yl)-6-(3,4,5-trimethoxyphenyl)-1H-imidazo[4,5-b]pyrazine] and `COc1cc(-c2cnc3[nH]c(=S)n(CC4CC4)c3n2)cc(OC)c1OC` [Example 127, 1-(cyclopropylmethyl)-6-(3,4,5-trimethoxyphenyl)-1H-imidazo[4,5-b]pyrazine-2(3H)-thione] cannot be ordered by IC50: greater than 1000 nM for the first, greater than 1000 nM for the second.

`COc1cc(-c2cnc3c(c2)C(=Cc2ccccc2)C(=O)N3)cc(OC)c1OC` [Example 130, 3-benzylidene-5-(3,4,5-trimethoxy-phenyl)-1,3-dihydro-pyrrolo[2,3-b]pyridin-2-one] and `COc1cc(-c2cnc3c(c2)C(=Cc2cccc(C(N)=O)c2)C(=O)N3)cc(OC)c1OC` [Example 132, 3-[2-oxo-5-(3,4,5-trimethoxy-phenyl)-1,2-dihydro-pyrrolo[2,3-b]pyridin-3-ylidenemethyl]-benzamide] cannot be ordered by IC50: greater than 1000 nM for the first, greater than 1000 nM for the second.

First: COc1cc(-c2cnc3c(c2)C(=Cc2ccc(C(N)=O)cc2)C(=O)N3)cc(OC)c1OC [Example 131, 4-[2-oxo-5-(3,4,5-trimethoxy-phenyl)-1,2-dihydro-pyrrolo[2,3-b]pyridin-3-ylidenemethyl]-benzamide]
Second: COc1cc(-c2cnc3c(c2)C(=Cc2ccc(C#N)cc2)C(=O)N3)cc(OC)c1OC [Example 133, 4-[2-oxo-5-(3,4,5-trimethoxy-phenyl)-1,2-dihydro-pyrrolo[2,3-b]pyridin-3-ylidenemethyl]-benzonitrile]
The IC50 of the first is lower: 100 to 1000 nM for the first, greater than 1000 nM for the second. The first is the more potent here.

`COc1cc(-c2cnc3c(c2)C(Cc2cccnc2)C(=O)N3)cc(OC)c1OC` (centres unmarked) [Example 135, 3-pyridin-3-ylmethyl-5-(3,4,5-trimethoxy-phenyl)-1,3-dihydro-pyrrolo[2,3-b]pyridin-2-one] and `COc1cc(-c2cnc3c(c2)C(Cc2ccncc2)C(=O)N3)cc(OC)c1OC` (centres unmarked) [Example 136, 3-pyridin-4-ylmethyl-5-(3,4,5-trimethoxy-phenyl)-1,3-dihydro-pyrrolo[2,3-b]pyridin-2-one] cannot be ordered by IC50: greater than 1000 nM for the first, greater than 1000 nM for the second.

`COc1cc(-c2cnc3c(c2)C(Cc2ccccc2)C(=O)N3)cc(OC)c1OC` (centres unmarked) [Example 137, 3-benzyl-5-(3,4,5-trimethoxy-phenyl)-1,3-dihydro-pyrrolo[2,3-b]pyridin-2-one] was tested, and the IC50 was greater than 1000 nM.

Reference: patent publication US8846909B2, “Bicyclic heteroaryl kinase inhibitors and methods of use” (University of Rochester, priority 2010, dated 2014)
